The results in this text go back to publication PMC9917282, “Crystal Structure of Inhibitor-Bound Bacterial Oligopeptidase B in the Closed State: Similarity and Difference between Protozoan and Bacterial Enzymes” (International Journal of Molecular Sciences, 2023).

The experiment concerns the target T1, SpOpB (PSP) (Serratia proteamaculans, UniProt B3VI58).
T1 construct: gene opdB; plasmid pET-6HisOpB, expressed in E. coli BL21(DE3)RIPL; monomer in asymmetric unit
T1 sequence (B3VI58 2-677): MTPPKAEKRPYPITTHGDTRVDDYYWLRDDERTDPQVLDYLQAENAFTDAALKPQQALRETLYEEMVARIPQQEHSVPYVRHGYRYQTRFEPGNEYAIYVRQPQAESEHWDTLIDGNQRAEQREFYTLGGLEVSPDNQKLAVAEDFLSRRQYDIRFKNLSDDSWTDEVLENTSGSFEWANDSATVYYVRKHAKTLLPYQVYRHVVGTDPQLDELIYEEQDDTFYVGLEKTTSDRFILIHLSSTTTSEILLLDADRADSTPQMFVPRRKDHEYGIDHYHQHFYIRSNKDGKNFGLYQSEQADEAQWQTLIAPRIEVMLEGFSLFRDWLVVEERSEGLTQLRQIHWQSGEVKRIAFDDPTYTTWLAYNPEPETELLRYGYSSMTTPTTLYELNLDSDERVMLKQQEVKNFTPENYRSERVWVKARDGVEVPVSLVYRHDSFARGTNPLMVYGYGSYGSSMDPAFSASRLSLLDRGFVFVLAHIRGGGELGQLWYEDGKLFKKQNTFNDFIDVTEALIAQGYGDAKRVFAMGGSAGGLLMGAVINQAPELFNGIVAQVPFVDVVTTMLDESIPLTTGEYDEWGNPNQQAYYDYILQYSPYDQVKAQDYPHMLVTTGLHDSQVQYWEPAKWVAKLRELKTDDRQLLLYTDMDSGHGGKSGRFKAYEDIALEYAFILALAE
Nature of the experiment: Kitz-Wilson inactivation kinetics, residual BAPNA hydrolysis at […] nm; crystal structure of complex at […] A. The conditions noted are these: covalent; irreversible alkylation, Ki of the initial enzyme-inhibitor complex; bound to S532 and H652; 0.1 M Tris-HCl pH 8.0, 25 °C; 70 nM enzyme, 50–260 µM TCK. It counts as biochemical.

`Cc1ccc(S(=O)(=O)N[C@@H](CCCCN)C(=O)CCl)cc1` [TCK] returned a KI (inactivation) of 280 ± 60 µM.
